# Data as given in US8927500B2, “Peptidomimetic macrocycles” (Aileron Therapeutics, Inc., priority 2012, dated 2015).
# Where a SMILES comes first, the peptide text is derived from it. Bridges are numbered along the chain shown (N, C = ends). [ ]: non-standard residue; d: D form. R8 = C=CCCCCCC[C@@](C)(N)C(=O)O; Cba = N[C@@H](CC1CCC1)C(=O)O; S5 = C=CCCC[C@](C)(N)C(=O)O; Nle = CCCC[C@H](N)C(=O)O; Aib = CC(C)(N)C(=O)O
# Key:
# Caspase 3 = Caspase 3 detection assay in SJSA1 cells; assay type: cell-based; conditions: 48 h, Caspase 3 activation over DMSO-treated cells; for caspase 3 uM: 3 uM peptide; for caspase 10 uM: 10 uM peptide; for caspase 30 uM: 30 uM peptide; for caspase 0.3 uM: 0.3 uM peptide
# MDM2 = MDM2 (Homo sapiens, UniProt Q00987); experiment: Competitive fluorescence polarization assay for MDM2; assay type: binding; conditions: competitive FP assay, MDM2; for IC50: read-out: IC50 (MDM2); for Ki: read-out: Ki (MDM2)
# MDM2, sequence (Q00987 1-125): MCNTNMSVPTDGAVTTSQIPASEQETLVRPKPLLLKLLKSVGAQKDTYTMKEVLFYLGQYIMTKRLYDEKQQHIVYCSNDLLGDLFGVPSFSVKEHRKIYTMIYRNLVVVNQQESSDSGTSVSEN
# MDMX = target: T1, MDMX (Homo sapiens, UniProt O15151); experiment: Competitive fluorescence polarization assay for MDMX; assay type: binding; conditions: competitive FP assay; for IC50: read-out: IC50 (MDMX); for Ki: read-out: Ki (MDMX)
# T1 sequence (O15151 1-125): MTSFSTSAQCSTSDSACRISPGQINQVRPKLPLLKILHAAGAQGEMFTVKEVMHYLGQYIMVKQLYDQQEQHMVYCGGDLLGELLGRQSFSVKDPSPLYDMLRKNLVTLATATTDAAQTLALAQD
# SJSA-1 cells = experiment: Cell lysis by peptidomimetic macrocycles (LDH release); assay type: cell-based; conditions: 1 h at 37C
structure (smiles),measurement,setting,value
"CC[C@H](C)[C@H](NC(=O)[C@H](C)NC(=O)[C@H](C)NC(=O)[C@]1(C)CCCC=CCCCCCC[C@@](C)(NC(=O)[C@H](Cc2ccccc2)NC(=O)[C@@H](NC(=O)[C@H](CC(C)C)NC(C)=O)[C@@H](C)O)C(=O)N[C@@H](C)C(=O)N[C@@H](Cc2ccc(O)cc2)C(=O)N[C@@H](Cc2c[nH]c3ccccc23)C(=O)N[C@@H](C)C(=O)N[C@@H](CCC(N)=O)C(=O)N[C@@H](CC(C)C)C(=O)N1)C(=O)N[C@H](C)C(N)=O (single isomer, unassigned) [compound 70]",caspase 3 uM,Caspase 3,1
same,caspase 10 uM,Caspase 3,9
same,caspase 30 uM,Caspase 3,26
same,IC50,MDM2,100 to 1000 nM
same,Ki,MDM2,< 10 nM
same,IC50,MDMX,100 to 1000 nM
same,Ki,MDMX,10 to 100 nM
"CC[C@H](C)[C@H](NC(=O)[C@H](C)NC(=O)[C@H](C)NC(=O)[C@]1(C)CCCC=CCCCCCC[C@@](C)(NC(=O)[C@H](Cc2ccccc2)NC(=O)[C@@H](NC(=O)[C@H](CC(C)C)NC(C)=O)[C@@H](C)O)C(=O)N[C@@H](C)C(=O)N[C@@H](Cc2ccc(O)cc2)C(=O)N[C@@H](Cc2c[nH]c3ccccc23)C(=O)N[C@@H](C)C(=O)N[C@@H](CCC(N)=O)C(=O)N[C@@H](CC(C)C)C(=O)N1)C(=O)N[C@H](CC(C)C)C(N)=O (single isomer, unassigned) [compound 82]",6.25 uM % Lysed cells (1 h LDH),SJSA-1 cells,0%
same,25 uM % Lysed cells (1 h LDH),SJSA-1 cells,0%
same,50 uM % Lysed cells (1 h LDH),SJSA-1 cells,1%
"CC(=O)N[C@@H](CC(C)C)C(=O)N[C@H](C(=O)N[C@@H](Cc1ccccc1)C(=O)N[C@]1(C)CCCCCCC=CCCC[C@@](C)(C(=O)N[C@@H](C)C(=O)N[C@H](C(=O)NCC(N)=O)C(C)C)NC(=O)[C@H](CC(C)C)NC(=O)[C@H](CCC(N)=O)NC(=O)[C@H](C)NC(=O)[C@H](Cc2c[nH]c3ccccc23)NC(=O)[C@H](Cc2ccc(O)cc2)NC(=O)[C@H](C)NC1=O)[C@@H](C)O (single isomer, unassigned) [compound 108]",6.25 uM % Lysed cells (1 h LDH),SJSA-1 cells,0%
same,25 uM % Lysed cells (1 h LDH),SJSA-1 cells,0%
same,50 uM % Lysed cells (1 h LDH),SJSA-1 cells,1%
"CC[C@H](C)[C@H](NC(=O)[C@H](C)NC(=O)[C@H](C)NC(=O)[C@]1(C)CCCC=CCCCCCC[C@@](C)(NC(=O)[C@H](Cc2ccccc2)NC(=O)[C@@H](NC(=O)[C@H](CCC(=O)O)NC(C)=O)[C@@H](C)O)C(=O)N[C@@H](CCC(=O)O)C(=O)N[C@@H](Cc2c[nH]cn2)C(=O)N[C@@H](Cc2c[nH]c3ccccc23)C(=O)N[C@@H](C)C(=O)N[C@@H](CCC(N)=O)C(=O)N[C@@H](CC(C)C)C(=O)N1)C(=O)N[C@H](C)C(N)=O (single isomer, unassigned) [compound 174]",6.25 uM % Lysed cells (1 h LDH),SJSA-1 cells,5%
same,25 uM % Lysed cells (1 h LDH),SJSA-1 cells,2%
same,50 uM % Lysed cells (1 h LDH),SJSA-1 cells,5%
"CC[C@H](C)[C@H](NC(=O)[C@H](C)NC(=O)[C@H](C)NC(=O)[C@]1(C)CCCC=CCCCCCC[C@@](C)(NC(=O)[C@H](Cc2ccccc2)NC(=O)[C@@H](NC(=O)[C@H](CC(C)C)NC(C)=O)[C@@H](C)O)C(=O)N[C@@H](CCC(=O)O)C(=O)N[C@@H](Cc2ccc(C(=O)O)cc2)C(=O)N[C@@H](Cc2c[nH]c3cc(Cl)ccc23)C(=O)N[C@@H](C)C(=O)N[C@@H](CCC(N)=O)C(=O)N[C@@H](CC2CCC2)C(=O)N1)C(=O)N[C@H](C)C(N)=O (single isomer, unassigned) [compound 335]",6.25 uM % Lysed cells (1 h LDH),SJSA-1 cells,0%
same,25 uM % Lysed cells (1 h LDH),SJSA-1 cells,0%
same,50 uM % Lysed cells (1 h LDH),SJSA-1 cells,1%
"CC(=O)N[C@@H](CCC(=O)O)C(=O)N[C@H](C(=O)N[C@@H](Cc1ccccc1)C(=O)N[C@]1(C)CCCCCCC=CCCC[C@@](C)(C(=O)N[C@@H](C)C(=O)N[C@@H](C)C(=O)N[C@@H](C)C(=O)N[C@@H](C)C(=O)N[C@@H](C)C(=O)N[C@H](C)C(N)=O)NC(=O)[C@H](CC(C)C)NC(=O)[C@H](CCC(N)=O)NC(=O)[C@H](C)NC(=O)[C@H](Cc2c[nH]c3ccccc23)NC(=O)[C@H](Cc2ccc(O)cc2)NC(=O)[C@H](CCC(=O)O)NC1=O)[C@@H](C)O (single isomer, unassigned) [compound 340]",6.25 uM % Lysed cells (1 h LDH),SJSA-1 cells,0%
same,25 uM % Lysed cells (1 h LDH),SJSA-1 cells,0%
same,50 uM % Lysed cells (1 h LDH),SJSA-1 cells,0%
CC(=O)N[C@@H](CC(C)C)C(=O)N[C@H](C(=O)N[C@@H](Cc1ccccc1)C(=O)N[C@]1(C)CCCCCCC=CCCC[C@@](C)(C(=O)N[C@@H](CO)C(=O)N[C@@H](C)C(=O)NC(C)(C)C(N)=O)NC(=O)[C@H](CC(C)C)NC(=O)[C@H](CCC(N)=O)NC(=O)[C@H](C)NC(=O)[C@H](Cc2c[nH]c3ccccc23)NC(=O)[C@H](Cc2ccc(O)cc2)NC(=O)[C@H](C)NC1=O)[C@@H](C)O [compound 10] (Ac-LTF[R8]AYWAQL[S5]SA[Aib]-NH2; staple 4-11),caspase 0.3 uM,Caspase 3,1
same,caspase 3 uM,Caspase 3,1
same,caspase 10 uM,Caspase 3,17
same,caspase 30 uM,Caspase 3,32
same,IC50,MDM2,100 to 1000 nM
same,Ki,MDM2,10 to 100 nM
same,IC50,MDMX,100 to 1000 nM
same,Ki,MDMX,10 to 100 nM
CC(=O)N[C@@H](CC(C)C)C(=O)N[C@H](C(=O)N[C@@H](Cc1ccccc1)C(=O)N[C@]1(C)CCCCCCC=CCCC[C@@](C)(C(=O)N[C@@H](C)C(=O)N[C@@H](Cc2c[nH]cn2)C(=O)N[C@@H](Cc2ccccc2)C(=O)N[C@@H](C)C(N)=O)NC(=O)[C@H](CC(C)C)NC(=O)[C@H](CCC(N)=O)NC(=O)[C@H](C)NC(=O)[C@H](Cc2c[nH]c3ccccc23)NC(=O)[C@H](Cc2ccc(O)cc2)NC(=O)[C@H](C)NC1=O)[C@@H](C)O [compound 50] (Ac-LTF[R8]AYWAQL[S5]AHFA-NH2; staple 4-11),caspase 3 uM,Caspase 3,8
same,caspase 10 uM,Caspase 3,29
same,caspase 30 uM,Caspase 3,29
same,IC50,MDM2,10 to 100 nM
same,Ki,MDM2,< 10 nM
same,IC50,MDMX,100 to 1000 nM
same,Ki,MDMX,10 to 100 nM
CC(=O)N[C@@H](CCC(=O)O)C(=O)N[C@H](C(=O)N[C@@H](Cc1ccccc1)C(=O)N[C@]1(C)CCCCCCC=CCCC[C@@](C)(C(=O)N[C@@H](CO)C(=O)N[C@@H](CC(C)C)C(=O)N[C@@H](C)C(N)=O)NC(=O)[C@H](CC(C)C)NC(=O)[C@H](CCC(N)=O)NC(=O)[C@H](C)NC(=O)[C@H](Cc2c[nH]c3ccccc23)NC(=O)[C@H](Cc2ccc(O)cc2)NC(=O)[C@H](C(C)C)NC1=O)[C@@H](C)O [compound 127] (Ac-ETF[R8]VYWAQL[S5]SLA-NH2; staple 4-11),caspase 0.3 uM,Caspase 3,1
same,caspase 3 uM,Caspase 3,1
same,caspase 10 uM,Caspase 3,4
same,caspase 30 uM,Caspase 3,13
same,IC50,MDM2,< 10 nM
same,Ki,MDM2,< 10 nM
same,IC50,MDMX,100 to 1000 nM
same,Ki,MDMX,10 to 100 nM
CC(=O)N[C@@H](CC(C)C)C(=O)N[C@H](C(=O)N[C@@H](Cc1ccccc1)C(=O)N[C@]1(C)CCCCCCC=CCCC[C@@](C)(C(=O)N[C@@H](C)C(=O)N[C@@H](Cc2c[nH]cn2)C(=O)N[C@@H](Cc2ccccc2)C(=O)N[C@@H](C)C(N)=O)NC(=O)[C@H](CC(C)C)NC(=O)[C@H](CCC(N)=O)NC(=O)[C@H](C(C)C)NC(=O)[C@H](Cc2c[nH]c3ccccc23)NC(=O)[C@H](Cc2c[nH]cn2)NC(=O)[C@H](C)NC1=O)[C@@H](C)O [compound 190] (Ac-LTF[R8]AHWVQL[S5]AHFA-NH2; staple 4-11),6.25 uM % Lysed cells (1 h LDH),SJSA-1 cells,−1%
same,25 uM % Lysed cells (1 h LDH),SJSA-1 cells,0%
same,50 uM % Lysed cells (1 h LDH),SJSA-1 cells,1%
CCCC[C@H](NC(=O)[C@H](C)NC(=O)[C@H](C)NC(=O)[C@]1(C)CCCC=CCCCCCC[C@@](C)(NC(=O)[C@H](Cc2ccccc2)NC(=O)[C@@H](NC(=O)[C@H](CC(C)C)NC(C)=O)[C@@H](C)O)C(=O)N[C@@H](CCC(=O)O)C(=O)N[C@@H](Cc2ccc(O)cc2)C(=O)N[C@@H](Cc2c[nH]c3ccccc23)C(=O)N[C@@H](C)C(=O)N[C@@H](CCC(N)=O)C(=O)N[C@@H](CC2CCC2)C(=O)N1)C(=O)N[C@@H](C)C(N)=O [compound 238] (Ac-LTF[R8]EYWAQ[Cba][S5]AA[Nle]A-NH2; staple 4-11),caspase 0.3 uM,Caspase 3,1
same,caspase 3 uM,Caspase 3,2
same,caspase 10 uM,Caspase 3,4
same,caspase 30 uM,Caspase 3,21
same,IC50,MDM2,10 to 100 nM
same,Ki,MDM2,< 10 nM
same,IC50,MDMX,10 to 100 nM
same,Ki,MDMX,10 to 100 nM
CC(=O)N[C@@H](CC(C)C)C(=O)N[C@H](C(=O)N[C@@H](Cc1ccccc1)C(=O)N[C@]1(C)CCCCCCC=CCCC[C@@](C)(C(=O)N[C@@H](CO)C(=O)N[C@@H](C)C(=O)N[C@@H](Cc2ccccc2)C(=O)N[C@@H](C)C(N)=O)NC(=O)[C@H](CC2CCC2)NC(=O)[C@H](CCC(N)=O)NC(=O)[C@H](C)NC(=O)[C@H](Cc2c[nH]c3ccccc23)NC(=O)[C@H](Cc2ccc(O)cc2)NC(=O)[C@H](CCC(=O)O)NC1=O)[C@@H](C)O [compound 242] (Ac-LTF[R8]EYWAQ[Cba][S5]SAFA-NH2; staple 4-11),caspase 0.3 uM,Caspase 3,1
same,caspase 3 uM,Caspase 3,4
same,caspase 10 uM,Caspase 3,5
same,caspase 30 uM,Caspase 3,18
same,IC50,MDM2,10 to 100 nM
same,Ki,MDM2,< 10 nM
same,IC50,MDMX,100 to 1000 nM
same,Ki,MDMX,10 to 100 nM
CCCC[C@H](NC(=O)[C@H](C)NC(=O)[C@H](C)NC(=O)[C@]1(C)CCCC=CCCCCCC[C@@](C)(NC(=O)[C@H](Cc2ccccc2)NC(=O)[C@@H](NC(=O)[C@H](CC(C)C)NC(C)=O)[C@@H](C)O)C(=O)N[C@@H](C)C(=O)N[C@@H](Cc2ccc(O)cc2)C(=O)N[C@@H](Cc2c[nH]c3ccccc23)C(=O)N[C@@H](Cc2cc(=O)oc3cc(OC)c(OC)cc23)C(=O)N[C@@H](CCC(N)=O)C(=O)N[C@@H](CC(C)C)C(=O)N1)C(=O)N[C@@H](C)C(N)=O [compound 415],6.25 uM % Lysed cells (1 h LDH),SJSA-1 cells,4%
same,25 uM % Lysed cells (1 h LDH),SJSA-1 cells,2%
same,50 uM % Lysed cells (1 h LDH),SJSA-1 cells,2%
